Values after ≈ are worked out from the molar mass of the structure shown.
How the values were obtained:
[1] = physchem; format: physicochemical
Protocol: The water solubility of FPF polymorph A and B was determined by saturating a certain amount of demineralized water with the respective polymorph, stirring the resulting saturated suspension overnight, filtering the undissolved solid residue, and measuring the dissolved concentration of FPF in the filtrate.

[2] = system: bird cherry-oat aphid Rhopalosiphum padi; experiment: Systemic efficacy of FPF FS 480 as barley seed treatment against aphids; format: in vivo; conditions: seed treatment with FS 480
Description: Physico-chemical properties are key drivers for systemic plant uptake and biological activity. To test the efficacy of different FPF modifications against the bird cherry-oat aphid Rhopalosiphum padi a sufficient number of barley seeds (variety “Scarlett”, thousand kernel weight: 43.6 g) were manually dressed with a defined amount of the Flupyradifurone FS480 formulated with 100% Form A, 100% Form B and a combination of 99% Form A and 1% Form B, respectively. Test concentrations were 0.15 g active ingredient per kg of seed (commercial dose rate in cereals) and 0.075 g active ingredient per kg of seed. Longitudinal boxes were filled with 5,900 g of a sandy loam soil (75.1% sand, 10.3% clay, 14.8% silt, 1.75% humus, pH 6.9) and 15 seeds per box were sown at spacing of approx. 2.5 cm and at depth of 3 cm. After sowing, boxes were watered to reach 50-70% of field capacity and covered with plastic foil until first plants were emerging. Aphid infestation was conducted at the second leaf stage by adding multiple pieces of infested leaf material to each test box. A second re-infestation was carried out at 3 days after the first infestation using methods described previously. The biological activity of tested FPF modifications was evaluated at 3 and 7 days after the initial infestation by a visual assessment of the colonized leaf area in comparison to the untreated and infested control. Results were expressed in percent efficacy. […] Growing conditions were at a constant temperature of 20° C., 50% relative humidity and 14 hours of illumination using sodium pressure lamps. The experiment comprised 3 replicates per treatment.

SMILES | Water Solubility [1] | reduced water solubility of FPF form A [1] | water solubility compared with form B [1] | water solubility of polymorphic form A as share of that of polymorphic form B [1] | solubility ([1]; water, thermodynamic from solid, Water Solubility) | systemic biological efficacy compared with form B ([2]; listed as FPF form A) | systemic biological efficacy compared with form B ([2]; listed as form A) | systemic biological efficacy compared with form B ([2]; listed as polymorphic form A)
O=C1C=C(N(Cc2ccc(Cl)nc2)CC(F)F)CO1 [Polymorph B, 4-[(6-chloro-3-pyridylmethyl)(2,2-difluoroethyl)amino]furan-2(5H)-one, reference compound] | 3200 µg/mL | – | – | – | – | – | – | –
O=C1C=C(N(Cc2ccc(Cl)nc2)CC(F)F)CO1 [Polymorph A, 4-[(6-chloro-3-pyridylmethyl)(2,2-difluoroethyl)amino]furan-2(5H)-one] | – | 60% | significantly lower than that of form B | 60% | 2000 µg/mL (≈ 6.93 mM) | does not lead to a reduced biological efficacy in comparison to FPF form B | not reduced | at the same level as that of polymorphic form B
